Source: patent publication US20210275488A1, “NOVEL COMPOUND ISOLATED FROM CERVI PARVUM CORNU, AND PHARMACEUTICAL USES THEREOF” (FNG RESEARCH CO., LTD., priority 2018, published 2021)

Columns and labels:
peritoneal macrophages = assay: Evaluation of cytotoxicity using MTT assay; type: cell-based, C57BL/6 mice; conditions: 24 hours
Protocol: (§1) As experimental animals, 8-week-old C57BL/6 mice were bred for 7 days under the environment of a temperature of 22±2° C., a relative humidity of 65±5% and a 12-hour cycle in light and dark, and then adapted to the laboratory environment, and then used for the experiment. Solid feed (Samyang feed) and water were sufficiently supplied.
(§2) HBSS was intraperitoneally injected into a mouse to extract macrophages, which was centrifuged at 3,000 rpm for 5 minutes, and then 100 units/mL of penicillin/streptomycin was added to DMEM medium with 10% fetal bovine serum (FBS), and peritoneal macrophage was isolated. It was incubated in a 37° C., 5% CO2 incubator for 24 hours, and then used in the experiment.
100 uL of the cultured peritoneal macrophages were dispensed into a 96-well plate at 3×10^5 cells/well and cultured overnight. After removing the medium, the peritoneal macrophage was treated with the compounds of Example 1 (PCA glycerol) and Example 2 (CPA glycerol) at different concentrations (10 μg/ml, 100 μg/ml, and 200 μg/ml, respectively), and then incubated for 24 hours in a 37° C., 5% CO2 incubator. After incubation, the medium was removed, 40 uL of MTT (5 mg/mL) reagent was dispensed and incubated for 4 hours in a CO2 incubator, the MTT reagent was removed, and 600 uL of DMSO reagent was dispensed, and then left at room temperature for 30 minutes. Then, the absorbance (OD) was measured at 540 nm with a microplate reader.

IL-6 = assay: Inhibition of IL-6 production in LPS-induced mouse peritoneal macrophages (ELISA); type: cell-based; conditions: LPS (1 μg/ml), 12 hours
Protocol: as §1, §2
(§3) The secretion amount of IL-6, IL-1β and TNF-α secreted from mouse peritoneal macrophages induced by lipopolysaccharide (LPS), which is an inflammatory response inducer, was measured by an ELISA assay (Millipore, USA) to thereby evaluate the anti-inflammatory activity.
(§4) In order to obtain a cell culture solution, mouse peritoneal macrophages were adjusted to 3×10^5 cells/mL, inoculated into a 96-well plate, cultured for 24 hours, and then the compounds of Example 1 (PCA glycerol), Example 2 (CPA glycerol) and Comparative Example (PLA glycerol) were treated at different concentrations (10 μg/ml, 100 μg/ml, and 200 μg/ml, respectively), and LPS (1 μg/ml) was treated. The normal group was untreated, and the control group was treated with only LPS (1 μg/ml) on peritoneal macrophages. After culturing for 12 hours, a supernatant was obtained by centrifugation. ELISA was run in microplates coated with anti-mouse IL-6, IL-1β and TNF-α as the capture antibody. Then, the cells were washed with phosphate buffered saline (PBST) containing 0.05% Tween 20, blocked with 10% FBS, and washed with PBST. The cell culture supernatant was dispensed into the wells, and reacted at room temperature for 2 hours. After the reaction, washing was performed with PBST and dilute biotinylated anti-mouse IL-6, IL-1β and TNF-α detection antibody and streptavidin-horseradish peroxydase conjugate were dispensed and reacted at room temperature for 1 hour. Then, washing was performed again with PBST, and an OPD solution was added, and then the mixture was subjected to dark reaction at room temperature for 30 minutes. After the reaction was terminated with 2N H2504, the absorbance was measured at 450 nm using a microplate reader.

IL-1β = assay: Inhibition of IL-1β production in LPS-induced mouse peritoneal macrophages (ELISA); type: cell-based; conditions: LPS (1 μg/ml), 12 hours
Protocol: as §1, §2, §3, §4

TNF-α = assay: Inhibition of TNF-α production in LPS-induced mouse peritoneal macrophages (ELISA); type: cell-based; conditions: LPS (1 μg/ml), 12 hours
Protocol: as §1, §2, §3, §4

NO production = assay: Inhibition of NO production in LPS-treated peritoneal macrophages (Griess reagent); type: cell-based, C57BL/6 mice; conditions: 24 hours, LPS control group = 100
Protocol: as §1, §2
The cultured peritoneal macrophages were suspended in DMEM containing 10% FBS, dispensed into a 96-well plate at 5×10^5 cells/well and incubated for 24 hours in a 37° C., 5% CO2 incubator, and replaced with new DMEM medium. Then, the peritoneal macrophages were treated with each of the compounds of Examples 1 and 2 and Comparative Example at different concentrations (10 μg/ml, 100 μg/ml, and 200 μg/ml, respectively), and LPS (1 μg/ml) was treated. Then, the cells were incubated for 24 hours. After incubation, the supernatant was separated, centrifuged at 3000 rpm for 5 minutes, and the separated supernatant was dispensed onto a new microplate. The normal group was untreated, and the control group was treated with only LPS (1 μg/ml) on the peritoneal macrophages.
The same amount of Griess reagent (1% sulfanilamide, 0.1% naphthyl-ethylenediamine dihydrochloride, 2% phosphoric acid) was treated, and reacted at room temperature for 10 minutes. After the culture solution was reacted with the Griess solution for […], the absorbance (OD) was measured at 540 nm.

[1] = test system: neutropenia induced by an anticancer agent (gemcitabine); assay: Mouse experiment of antineoplastic chemotherapy-induced neutropenia (gemcitabine); type: in vivo, C57BL/6 mice; conditions: for Number of neutrophils: Gemcitabine (50 mg/kg) i.p. daily 3 weeks, compound 50 mg/kg oral daily 3 weeks, neutrophils in 1 μl of blood; for reduction in the number of neutrophils: 3 weeks, relative to normal group
Protocol: 50 mg/kg of gemcitabine, used as an anticancer agent, was injected intraperitoneally into C57BL/6 mice every day for 3 weeks and used as a control group. 50 mg/kg of the compounds of Example 1, Example 2, and Comparative Example 1 were orally administered for 3 weeks every day, and after 3 weeks, the number of neutrophils in 1 μl of blood was measured using an automatic blood sample analyzer (Auto Hematology Analyzer BC-5900, Mindray), and the results are shown in Table 7 and FIG. 11 below.

[2] = test system: neutropenia induced by an anticancer agent (tamoxifen); assay: Mouse experiment of antineoplastic chemotherapy-induced neutropenia (tamoxifen); type: in vivo, C57BL/6 mice; conditions: for Number of neutrophils: Tamoxifen (50 mg/kg) i.p. daily 3 weeks, compound 50 mg/kg oral daily 3 weeks, neutrophils in 1 μl of blood; for decrease in the number of neutrophils: tamoxifen 50 mg/kg plus compound 50 mg/kg oral
Protocol: 50 mg/kg of Tamoxifen, used as an anticancer agent, was intraperitoneally injected into C57BL/6 mice every day for 3 weeks and used as a control group, and 50 mg/kg of the compounds of Example 1, Example 2, and Comparative Example 1 were orally administered for 3 weeks every day, and after 3 weeks, the number of neutrophils in 1 μl of blood was measured using an automatic blood sample analyzer (Auto Hematology Analyzer BC-5900, Mindray), and the results are shown in Table 8 and FIG. 12 below.

[3] = gemcitabine 50 mg/kg plus compound 50 mg/kg oral
[4] = 3 weeks, relative to normal group

| Compound | Cell viability (%) (peritoneal macrophages; 10 μg/ml) | Cell viability (%) (peritoneal macrophages; 100 μg/ml) | Cell viability (%) (peritoneal macrophages; 200 μg/ml) | IL-6 production amount (IL-6; compound 10 μg/ml) [pg/mL] | IL-6 production amount (IL-6; compound 100 μg/ml) [pg/mL] | IL-6 production amount (IL-6; compound 200 μg/ml) [pg/mL] | IL-1β Production amount (IL-1β; compound 10 μg/ml) [pg/mL] | IL-1β Production amount (IL-1β; compound 100 μg/ml) [pg/mL] | IL-1β Production amount (IL-1β; compound 200 μg/ml) [pg/mL] | TNF-α production amount (TNF-α; compound 10 μg/ml) [pg/mL] | TNF-α production amount (TNF-α; compound 100 μg/ml) [pg/mL] | TNF-α production amount (TNF-α; compound 200 μg/ml) [pg/mL] | NO production rate (%) (NO production; compound 10 μg/ml) | NO production rate (%) (NO production; compound 100 μg/ml) | NO production rate (%) (NO production; compound 200 μg/ml) | Number of neutrophils [1] [µL⁻¹] | reduction in the number of neutrophils [1, 3] | Number of neutrophils [2] [µL⁻¹] | decrease in the number of neutrophils [2, 4] | further results |
| --- | --- | --- | --- | --- | --- | --- | --- | --- | --- | --- | --- | --- | --- | --- | --- | --- | --- | --- | --- | --- |
| 1-Conjugated-Linoeoyl-2-Palmitoyl-3-Acetyl Glycerol [Example 2] | 100 ± 0.9 | 98.3 ± 1.7 | 98.0 ± 2.8 | 325 ± 13 | 234 ± 20 | 179 ± 17 | 40 ± 1.7 | 32 ± 2.4 | 28 ± 1.7 | 175 ± 7 | 151 ± 10 | 123 ± 7 | 50 ± 2 | 44 ± 3 | 34 ± 1 | 1142 ± 62 | 6.7% | 1124 ± 57 | about 8.2% | – |
| 1-Palmitoyl-2-Conjugated-Linoleoyl-3-Acetyl Glycerol [Example 1] | 100 ± 2.1 | 98.3 ± 1.9 | 98.1 ± 1.2 | 321 ± 22 | 225 ± 23 | 180 ± 25 | 40 ± 2.9 | 28 ± 2.3 | 26 ± 2.8 | 170 ± 8 | 153 ± 11 | 121 ± 10 | 52 ± 3 | 43 ± 3 | 37 ± 4 | 1198 ± 43 | about 2% | 1146 ± 63 | about 6.3% | – |
| CCCCC/C=C\C/C=C\CCCCCCCC(=O)OC(COC(C)=O)COC(=O)CCCCCCCCCCCCCCC (centres unmarked) [Comparative Example, 1-Palmitoyl-2-Linoleoyl-3-Acetyl Glycerol, reference compound] | – | – | – | 364 ± 16 | 251 ± 24 | 203 ± 25 | 43 ± 2.2 | 31 ± 2.4 | 31 ± 3.1 | 184 ± 21 | 155 ± 12 | 137 ± 7 | 56 ± 3 | 45 ± 2 | 41 ± 3 | 1047 ± 42 | 14.5% | 1066 ± 88 | 12.9% | – |
| Nc1ccn([C@@H]2O[C@H](CO)[C@@H](O)C2(F)F)c(=O)n1 [gemcitabine, reference compound] | – | – | – | – | – | – | – | – | – | – | – | – | – | – | – | – | – | – | – | reduction in the number of neutrophils ([1]; mice treated with gemcitabine 50 mg/kg i.p. alone (control group)): about 45% |
| CC/C(=C(\c1ccccc1)c1ccc(OCCN(C)C)cc1)c1ccccc1 [tamoxifen, Tamoxifen, reference compound] | – | – | – | – | – | – | – | – | – | – | – | – | – | – | – | – | – | – | – | decrease in number of neutrophils ([2]; mice treated with tamoxifen 50 mg/kg i.p. alone (control group), 3 weeks, relative to normal group): about 37% |
